Reference: US20050255042A1, “On-demand cleavable linkers for radioconjugates for cancer imaging and therapy” (The Regents of the University of California Office of …, priority 2003, published 2005)
One block for each substance: values may come before it.

Key:
[1] = 1.25 mg/kg body weight over 3 hours; 8 of 73 patients; cited from earlier work
[2] = in vivo; cited from earlier work
t-PA = t-PA (Homo sapiens, UniProt P00750); settings: cited from earlier work
[3] = Cleavage of soluble peptides in human plasma alone, fluorescence plate reader; format: in vitro ADME; settings: 90 μM peptide, 10 μl plasma in PBS pH 7.2, without TNKase®
Procedure: (§1) The peptides in Table 3 were re-synthesized in soluble form with nitrotyrosine (Y(NO2) at the N-terminus and Abz at the ε-amino group of the lysine residue (k(Abz)) at the C-terminus. They were then incubated with human plasma alone or plasma plus TNKase® in a 96-well plate and the cleavage reaction was monitored over a period of time with a fluorescent plate reader. Each well contained 90 μM of peptides, 10 μl of plasma in PBS, ph 7.2, with or without 1 μg of TNKase®, in a final volume of 100 μl. Cleavage was measured as fluorescence intensity at different time intervals in the fluorescence plate reader at 360/440 nm excitation and emission range.

TNKase® = target: T1, TNKase® (Homo sapiens, UniProt P00750, H332A/K331A/N152Q/R333A/R334A/T138N); assay: Cleavage of soluble peptides in plasma plus TNKase®, fluorescence plate reader; format: biochemical
T1 construct: Activase® is a purified glycoprotein of 527 amino acids produced by recombinant DNA technology; purchased Genentech; host or cells: Chinese Hamster Ovary cells
T1 sequence (P00750 36-562 T138N/N152Q/K331A/H332A/R333A/R334A): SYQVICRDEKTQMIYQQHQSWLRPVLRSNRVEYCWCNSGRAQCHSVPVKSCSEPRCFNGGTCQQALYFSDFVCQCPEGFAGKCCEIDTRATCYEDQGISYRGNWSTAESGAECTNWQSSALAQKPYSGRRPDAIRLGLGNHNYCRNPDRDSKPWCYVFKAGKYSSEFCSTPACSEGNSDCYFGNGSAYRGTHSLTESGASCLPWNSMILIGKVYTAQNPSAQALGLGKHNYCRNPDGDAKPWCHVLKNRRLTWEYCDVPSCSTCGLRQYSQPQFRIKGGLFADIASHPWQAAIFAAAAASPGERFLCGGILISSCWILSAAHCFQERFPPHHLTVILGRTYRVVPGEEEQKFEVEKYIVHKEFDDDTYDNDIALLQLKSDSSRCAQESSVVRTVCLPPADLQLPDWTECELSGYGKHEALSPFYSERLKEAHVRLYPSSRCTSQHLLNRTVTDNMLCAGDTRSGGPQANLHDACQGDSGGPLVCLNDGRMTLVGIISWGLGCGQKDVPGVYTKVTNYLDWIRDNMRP
Procedure: as §1

Chain of t-PA (P00750 36-562, species assumed): as the sequence (P00750 36-562 T138N/N152Q/K331A/H332A/R333A/R334A) above, with N103T, Q117N, A296K, A297H, A298R, A299R counted along it

Substance: Activase®: purified recombinant t-PA glycoprotein of 527 amino acids, from Genentech
patients with a decrease in fibrinogen to below 100 mg/dl [1]: 11% | initial plasma half-life [2]: 5 min | plasma clearance [2]: 380 to 570 mL/min

Substance: GGSG PFGR↓SA LVPEE
hydrolysis efficiency by t-PA versus a peptide of similar length from the native cleavage site of plasminogen (t-PA): 5000 fold

stability / cleavage in human plasma [3]: completely stable | time to complete degradation by TNKase® (TNKase®; 10 μg/ml TNKase®): ≤ 2 h | degradation on incubation with TNKase® (TNKase®; 10 μg/ml TNKase®, two hours): completely degraded | susceptibility to TNKase® cleavage (TNKase®; plasma plus TNKase®): rapidly degraded
Substance: rqYKYkf [compound 20]
